# Data: US20140296153A1, “Oligodendrocyte Differentiation” (priority 2011, published 2014)
# What was measured:
# [1] = system: Olig2; assay: Immunocytochemistry for Olig2; format: cell-based, mouse; details: Hp treatment
# Description: Cells were fixed for 30 minutes in 4% paraformaldehyde in phosphate-buffered saline (PBS), permeabilized and blocked for non-specific binding sites for 1 h with 0.25% Triton X-100 (Sigma) and 3% bovine serum albumin (BSA, Sigma) dissolved in PBS. Cells were then subsequently incubated overnight at 4° C. with the following antibodies: rabbit polyclonal anti-CB1R (1:200, Proteimax), mouse monoclonal anti-nestin (1:200, Chemicon, Temecula, Calif., USA), mouse monoclonal anti-GFAP (1:500, Cell Signaling Technology, Danvers, Mass., USA) and rabbit polyclonal anti-Olig2 (1:200, Millipore, Billerica, Mass., USA). Thereafter, the cover slips were rinsed in PBS and incubated for 1 h at RT with the appropriate secondary antibodies: anti-rabbit IgG labeled with Alexa Fluor 488 (1:200) or anti-mouse IgG labeled with Alexa Fluor 594 (1:200) (both from Molecular Probes). After rinsing with PBS, cell preparations were incubated 5 min at RT with Hoechst 33342 (2 μg/mL, Molecular Probes) in PBS, for nuclear staining. Finally, the preparations were mounted using Dakocytomation fluorescent medium (Dakocytomation, Carpinteria, Calif., USA). Fluorescence images were recorded using a digital camera coupled to an Axioskop microscope (Carl Zeiss).
# [2] = molecular target: CB1R (Homo sapiens, UniProt P21554); details: cited from earlier work
# [3] = system: SVZ cells; assay: SVZ neurosphere forming assay (primary neurospheres); format: cell-based, mouse
# Description: Neurosphere forming and self-renewal assays were performed on SVZ cells seeded at clonal density, 2500 cells per well in 24-well cell culture plates in SFM containing 5 ng/ml EGF and 2.5 ng/ml FGF-2 and supplemented or not (control) with 1 μM Hp or 50 ng.ml^−1 hepatocyte growth factor (carrier free recombinant human HGF, R&D Systems, Lille, France). After 6 days, the numbers of primary neurospheres were determined. For self-renewal assay, neurospheres were collected, dissociated as single cells and seeded in SFM containing 5 ng/ml EGF and 2.5 ng/ml FGF-2 in 24 well plates. After 6 days, the number of secondary neurospheres was counted.
# Fluorescence images were recorded using an LSM 510 Meta confocal microscope or an Axioskop 2 Plus fluorescence microscope (both from Carl Zeiss). In all experiments, measurements were performed in the border of SVZ neurospheres where migrating cells form a cell monolayer. For the SVZ neurosphere forming and self-renewal assays the experiments were replicated in five independent culture preparations and each experimental condition was assayed in four different coverslips. For the remaining experiments, each condition was assayed in three different coverslips, and except where otherwise specified, the experiments were replicated in three independent culture preparations. Percentages of TUNEL or BrdU immunoreactive cells in SVZ cell cultures were calculated from cell counts in five independent microscopic fields in each coverslip with a x40 objective (approximately 200 cells per field). Software used was Axiovision, release 4.6 (Carl Zeiss). For SCCl experiments, the percentage of oligodendrocytic-like responding cells (with a Thromb/Hist ratio above 1.3) was calculated on the basis of one microscopic field per coverslip, containing approximately 100 cells (magnification, ×40).
# Neural stem-like cells are characterized in vitro by both their capacity to give rise to neurospheres and to self-renew when cultured in the presence of mitogens.
# Sequence of CB1R (P21554 whole entry): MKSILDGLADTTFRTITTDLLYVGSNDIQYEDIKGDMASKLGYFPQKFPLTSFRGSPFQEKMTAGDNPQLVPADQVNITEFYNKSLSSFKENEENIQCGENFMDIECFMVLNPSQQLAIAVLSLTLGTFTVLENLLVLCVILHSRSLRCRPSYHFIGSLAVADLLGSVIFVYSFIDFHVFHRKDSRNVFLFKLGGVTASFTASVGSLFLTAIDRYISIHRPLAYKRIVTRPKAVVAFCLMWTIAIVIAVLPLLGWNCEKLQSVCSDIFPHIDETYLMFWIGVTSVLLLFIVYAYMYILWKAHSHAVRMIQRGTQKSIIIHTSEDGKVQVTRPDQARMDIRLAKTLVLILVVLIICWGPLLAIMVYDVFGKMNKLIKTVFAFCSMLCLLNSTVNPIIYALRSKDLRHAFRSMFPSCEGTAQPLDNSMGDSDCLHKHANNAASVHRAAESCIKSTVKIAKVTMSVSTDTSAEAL
structure (smiles),measurement,setting,value
"CC(C)C[C@H](NC(=O)[C@H](Cc1ccccc1)NC(=O)[C@H](CCCCN)NC(=O)[C@H](Cc1ccccc1)NC(=O)[C@H](CC(N)=O)NC(=O)[C@@H](NC(=O)[C@@H]1CCCN1)C(C)C)C(=O)N[C@@H](CO)C(=O)N[C@@H](Cc1cnc[nH]1)C(=O)O [Hp, PVNFKFLSH]",number of Olig2-positive cells,[1],increased
same,activity at CB1R cannabinoid receptors,[2],CB1R receptor selective antagonist
same,decrease of the number of primary neurospheres,[3]; 1 μm Hp during 6 days,15%
same,number of primary neurospheres (control 100%),"[3]; Hp 1 μM, 6 days, SFM with 5 ng/ml EGF and 2.5 ng/ml FGF-2",85.13±3.86%
